Experimental data: patent US7427637B2, “Mitotic kinesin inhibitors” (Merck & Co. Inc., priority 2003, dated 2008)

Target: T1, human KSP motor domain (KSP(367H)) (Homo sapiens, UniProt P52732)
T1 construct: were used to amplify the motor domain and the neck linker region; made in house; host or cells: E. coli BL21 (DE3), pRSETa
T1 sequence (P52732 18-359 limits assumed): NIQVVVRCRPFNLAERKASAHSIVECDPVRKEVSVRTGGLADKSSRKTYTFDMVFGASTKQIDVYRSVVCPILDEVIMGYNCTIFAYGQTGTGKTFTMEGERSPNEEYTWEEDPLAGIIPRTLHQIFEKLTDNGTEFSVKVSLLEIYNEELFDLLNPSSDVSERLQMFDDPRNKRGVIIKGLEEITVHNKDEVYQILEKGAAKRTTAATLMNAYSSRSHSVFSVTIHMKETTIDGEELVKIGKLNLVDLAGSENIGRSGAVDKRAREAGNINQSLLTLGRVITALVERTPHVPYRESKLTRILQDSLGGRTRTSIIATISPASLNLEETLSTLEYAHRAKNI
Assay: Kinesin ATPase in vitro assay
Assay type: biochemical
Settings: kinesin motor domain with microtubules, 1 mM ATP, 23° C.; free phosphate by quinaldine red/ammonium molybdate, absorbance 540 nm
From the text: I. Kinesin ATPase In Vitro Assay
Cloning and Expression of Human Poly-histidine Tagged KSP Motor Domain_(KSP(367H))
Plasmids for the expression of the human KSP motor domain construct were cloned by PCR using a pBluescript full length human KSP construct (Blangy et al., Cell, vol. 83, pp 1159-1169, 1995) as a template. The N-terminal primer 5′-[…] (SEQ. ID. NO.: 1) and the C-terminal primer 5′-[…] […] (SEQ. ID. NO.: 2) were used to amplify the motor domain and the neck linker region. The PCR products were digested with AseI and XhoI, ligated into the NdeI/XhoI digestion product of pRSETa (Invitrogen) and transformed into E. coli BL21 (DE3).
Cells were grown at 37° C. to an OD600 of 0.5. After cooling the culture to room temperature expression of KSP was induced with 100 μM IPTG and incubation was continued overnight. Cells were pelleted by centrifugation and washed once with ice-cold PBS. Pellets were flash-frozen and stored −80° C.
Cell pellets were thawed on ice and resuspended in lysis buffer (50 mM K-HEPES, pH 8.0, 250 mM KCl, 0.1% Tween, 10 mM imidazole, 0.5 mM Mg-ATP, 1 mM PMSF, 2 mM benzimidine, 1× complete protease inhibitor cocktail (Roche)). Cell suspensions were incubated with 1 mg/ml lysozyme and 5 mM β-mercaptoethanol on ice for 10 minutes, followed by sonication (3×30 sec). All subsequent procedures were performed at 4° C. Lysates were centrifuged at 40,000×g for 40 minutes. Supernatants were diluted and loaded onto an SP Sepharose column (Pharmacia, 5 ml cartridge) in buffer A (50 mM K-HEPES, pH 6.8, 1 mM MgCl2, 1 mM EGTA, 10 μM Mg-ATP, 1 mM DTT) and eluted with a 0 to 750 mM KCl gradient in buffer A. Fractions containing KSP were pooled and incubated with Ni-NTA resin (Qiagen) for one hour. The resin was washed three times with buffer B (Lysis buffer minus PMSF and protease inhibitor cocktail), followed by three 15-minute incubations and washes with buffer B. Finally, the resin was incubated and washed for 15 minutes three times with buffer C (same as buffer B except for pH 6.0) and poured into a column. KSP was eluted with elution buffer (identical to buffer B except for 150 mM KCl and 250 mM imidazole). KSP-containing fractions were pooled, made 10% in sucrose, and stored at −80° C.
Microtubules are prepared from tubulin isolated from bovine brain. Purified tubulin (>97% MAP-free) at 1 mg/ml is polymerized at 37° C. in the presence of 10 μM paclitaxel, 1 mM DTT, 1 mM GTP in BRB80 buffer (80 mM K-PIPES, 1 mM EGTA, 1 mM MgCl2 at pH 6.8). The resulting microtubules are separated from non-polymerized tubulin by ultracentrifugation and removal of the supernatant. The pellet, containing the microtubules, is gently resuspended in 10 μM paclitaxel, 1 mM DTT, 50 μg/ml ampicillin, and 5 μg/ml chloramphenicol in BRB80.
The kinesin motor domain is incubated with microtubules, 1 mM ATP (1:1 MgCl2: Na-ATP), and compound at 23° C. in buffer containing 80 mM K-HEPES (pH 7.0), 1 mM EGTA, 1 mM DTT, 1 mM MgCl2, and 50 mM KCl. The reaction is terminated by a 2-10 fold dilution with a final buffer composition of 80 mM HEPES and 50 mM EDTA (or, alternately, with a 1:1 addition of reaction volume to stop buffer (1.8M KCl and 50 mM EDTA)). Free phosphate from the ATP hydrolysis reaction is measured via a quinaldine red/ammonium molybdate assay by adding a 1.5 times volume of quench C (e.g., to a mixture of 40 μl reaction volume+40 μl stop buffer is then added 120 μl quench C). Quench A contains 0.1 mg/ml quinaldine red and 0.14% polyvinyl alcohol; quench B contains 12.3 mM ammonium molybdate tetrahydrate in 1.15 M sulfuric acid. Quench C is a 2:1 ratio of quench A:quench B The reaction is incubated for 5-10 minutes at 23° C., and the absorbance of the phospho-molybdate complex is measured at 540 nm.

IC50, ≤ 50 µM:
CN1C[C@H]2C(c3cc(F)ccc3F)=C[C@@H](c3ccccc3)N2C1=O (racemic) [Compound 2A-1a, (±)-(5S,7aR)-7-(2,5-Difluorophenyl)-2-methyl-5-phenyl-1,2,5,7a-tetrahydro-3H-pyrrolo[1,2-c]imidazol-3-one]
O=C1CNCC2C(c3cc(F)ccc3F)=CC(c3ccccc3)N12 (racemic) [Compound 3-2b, (±)-(2S,5S and 2R,5R)-7-(2,5-Difluorophenyl)-5-phenyl-1,2,5,7a-tetrahydro-3H-pyrrolo[1,2-a]pyrazin-4(1H)-one]
CCN(CC)CCN1C[C@H]2C(c3cc(F)ccc3F)=C[C@@H](c3ccccc3)N2C1=O (racemic) [Compound 2A-1d, (±)-(5S,7aR)-7-(2,5-Difluorophenyl)-2-[2-(diethylamino)ethyl]-5-phenyl-1,2,5,7a-tetrahydro-3H-pyrrolo[1,2-c]imidazol-3-one]
O=C1NCC2C(c3cc(F)ccc3F)=CC(c3ccccc3)N12 (racemic) [Compound 2-4a, (±)-7-(2,5-Difluorophenyl)-5-phenyl-1,2,5,7a-tetrahydro-3H-pyrrolo[1,2-c]imidazol-3-one]
O=C1CNC[C@H]2C(c3cc(F)ccc3F)=C[C@@H](c3ccccc3)N12 (racemic) [Compound 3-2a, (±)-(2S,5R and 2R,5S)-7-(2,5-Difluorophenyl)-5-phenyl-1,2,5,7a-tetrahydro-3H-pyrrolo[1,2-a]pyrazin-4(1H)-one]
O=C1CN2[C@@H](CN1)C(c1cc(F)ccc1F)=C[C@H]2c1ccccc1 (racemic) [Compound 5-1, (±)-(6S,8aR and 6R,8aS)-8-(2,5-Difluorophenyl)-6-phenyl-1,2,6,8a-tetrahydropyrrolo[1,2-a]pyrazin-3(4H)-one]
CN(C)CCN1C[C@H]2C(c3cc(F)ccc3F)=C[C@@H](c3ccccc3)N2C1=O (racemic) [Compound 2A-1c, (±)-(5S,7aR)-7-(2,5-Difluorophenyl)-2-[2-(dimethylamino)ethyl]-5-phenyl-1,2,5,7a-tetrahydro-3H-pyrrolo[1,2-c]imidazol-3-one]
O=C1OCC2C(c3cc(F)ccc3F)=CC(c3ccccc3)N12 (racemic) [Compound 1-9a, (±)-(5S,7aR and 5R,7aS)-7-(2,5-Difluorophenyl)-5-phenyl-2,7a-dihydro-1H-pyrrole[1,2-c][1,3]oxazol-3-one]
CN1CC(=O)N2[C@@H](C1)C(c1cc(F)ccc1F)=C[C@H]2c1ccccc1 (racemic) [Compound 4-1, (±)-(6S,8aR and 6R,8aS)-8-(2,5-Difluorophenyl)-2-methyl-6-phenyl-2,3,6,8a-tetrahydropyrrolo[1,2-a]pyrazin-4(1H)-one]
CCN1C[C@H]2C(c3cc(F)ccc3F)=C[C@@H](c3ccccc3)N2C1=O (racemic) [Compound 2A-1b, (±)-(5S,7aR)-7-(2,5-Difluorophenyl)-2-ethyl-5-phenyl-1,2,5,7a-tetrahydro-3H-pyrrolo[1,2-c]imidazol-3-one]
